Measurements reported in paper PMC7200681, “The calcitonin-like system is an ancient regulatory system of biomineralization” (Scientific Reports, 2020).
Bridge positions count the residues as written; N and C are the ends.

System: mussel CALCRIa
Test: Calcium mobilization assay (apoaequorin bioluminescence), dose-response, HEK 293 cells expressing mussel CALCRIa
Assay type: cell-based, Mytilus galloprovincialis
Settings: calcium mobilization, HEK 293/apoaequorin, 1 μM to 0.01 nM
From the text: The complete sequence of the Mediterranean mussel CALCRIa was amplified using specific primers (Table 1) from cDNA of a tissue mixture (mantle, adductor muscle, gills, gonads) using a proofreading DNA polymerase (iProof BIORAD, Portugal) and cloned into the pGEMT-easy vector (PROMEGA, Spain). The Mediterranean mussel CALCRIIa transcript that was found in the mantle transcriptome was incomplete and lacked the N-terminus (by comparisons with the hard-shelled mussel homologue) and so the remaining sequence (from 1–393 bp) was deduced from the hard-shelled mussel homologue receptor and the receptor was synthesised and supplied by GENESCRIPT (USA). The complete transcripts for mussel CALCRIc, CALCRIIb and CALCRIIc were only found in the hard-shelled mussel mantle transcriptome and homologues were only found in the Mediterranean mussel genome as they were absent from the species mantle transcriptome and so they were also synthesised and supplied by GENESCRIPT (USA) using the hard-shelled mussel receptor sequences as template. The mussel CALCRIb transcript was incomplete and lacked both N and C-terminal regions and it was not possible to obtain the complete transcript either by searching both mussels mantle transcriptomes or the Mediterranean mussel genome and so it was not produced. All synthetized receptors were provided in the pUC57 cloning vector by the company and receptor codon usage was optimized to favour a high level of expression in mammalian cells.
Mammalian cell cultures and transfections followed the methodology described by[89],[90]. Mammalian HEK293 cells (ECACC, UK) were used and they were maintained in complete Dulbecco’s modified Eagle’s medium (DMEM, 4.5 g/l glucose, 110 mg/l sodium pyruvate and L-glutamine, SIGMA-ALDRICH, Spain) supplemented with 10% sterile foetal bovine serum (FBS), 0.1% penicillin: streptomycin antibiotic mix (10,000 U:10 mg/ml, Sigma) and 250 μg /ml sterile filtered 1:100 amphotericin B solution (SIGMA-ALDRICH) in a humid 5% CO2 incubator (HERAEUS, Portugal) at 37 °C. On the day prior to transfection, 2–3 × 10^5 HEK293 cells were seeded on 6 well plates (SARSTEDT, Portugal) and transfected with Fugene HD transfection reagent (2 DNA: 4 Fugene ratio, PROMEGA) following the manufacturer’s protocol. Seventy-two hours after transfection, 800 μg/ml of the antibiotic Geneticin (SIGMA-ALDRICH) was added to the medium to select and isolate stable receptor cell lines. Cell recovery was monitored daily and the medium was changed every two days until no cell death was observed. […]
HEK293 cells stably expressing five mussel receptors (CALCRIa, CALCRIc, CALCRIIa, CALCRIIb and CALCRIIc) were stimulated with the two mussel peptides and the vertebrate (human and salmon) calcitonins. Receptor activation was assessed in vitro by measuring two intracellular signalling pathways: a) production of cAMP and b) mobilization of calcium (Ca^2+). The cellular response was initially assessed using 10 μM of each peptide. […]
Stable cell lines expressing the mussel receptors were transiently co-transfected with the mitochondrial targeted apo-aequorin protein cloned in pcDNA3.1. Two days after transfection cells were washed, counted and resuspended in 1 ml of DMEM /F12 Ham (without phenol red)/0.1% BSA supplemented with 2 µM coelenterazine (SIGMA-ALDRICH). […] The injector system of the Biotek Synergy 4 microplate reader (USA) was used to inject 50 µl of the cell suspensions into wells containing 50 μl of the diluted peptide in DMEM / F12 Ham / 0.1% BSA. […]

With “H-CTWGGGMSDEMCSTVDIDEIQRSFQVIHDRNSP-NH2 (disulfide 1-12 (inferred)) [CALCIIa, Mediterranean mussel calcitonin-like mature peptide, 33 aa, synthesized with disulphide bond and C-terminal amidation]” the “Activation of mussel CALCRIa in dose-response analysis (in words)” value was “not activated”.
